The record followed here is patent US10590128B2, “6,7,8,9-tetrahydro-5H-pyrido[2,3-d]azepine dopamine D3 ligands” (Pfizer Inc., priority 2016, dated 2020).

For test [1], the target named is human dopamine D3 receptor (hD3R) (Homo sapiens, UniProt P35462). Kind of test: Human D3 receptor binding assay ([^3H]-7-OH-DPAT). Particulars: CHO cells expressing hD3R, geometric mean of 2-5 determinations unless marked b (single determination), read-out: hD3 in CHO cells Ki.
Test [2] has as its target human dopamine D2 receptor (hD2R) (Homo sapiens, UniProt P14416). Description: Human D2 receptor binding assay ([^3H]-Spiperone). Particulars: CHO cells expressing hD2R, geometric mean of 2-5 determinations unless marked b (single determination).

What is called Ki is the dissociation constant of the complex between target and ligand, obtained from inhibition or displacement.

Chain of human dopamine D2 receptor (hD2R) (P14416 whole entry): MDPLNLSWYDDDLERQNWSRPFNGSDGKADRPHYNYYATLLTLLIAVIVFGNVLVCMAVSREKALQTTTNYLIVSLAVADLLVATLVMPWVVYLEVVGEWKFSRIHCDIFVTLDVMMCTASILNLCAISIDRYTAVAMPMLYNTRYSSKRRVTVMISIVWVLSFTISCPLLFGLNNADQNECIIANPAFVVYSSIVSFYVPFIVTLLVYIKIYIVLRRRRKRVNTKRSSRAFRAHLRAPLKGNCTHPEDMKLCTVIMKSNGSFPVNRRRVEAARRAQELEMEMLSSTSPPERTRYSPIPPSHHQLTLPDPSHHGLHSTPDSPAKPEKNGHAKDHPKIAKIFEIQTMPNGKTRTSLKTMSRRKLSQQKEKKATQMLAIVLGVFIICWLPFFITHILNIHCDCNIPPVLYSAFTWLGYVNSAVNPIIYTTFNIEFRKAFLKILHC
Chain of human dopamine D3 receptor (hD3R) (P35462 whole entry): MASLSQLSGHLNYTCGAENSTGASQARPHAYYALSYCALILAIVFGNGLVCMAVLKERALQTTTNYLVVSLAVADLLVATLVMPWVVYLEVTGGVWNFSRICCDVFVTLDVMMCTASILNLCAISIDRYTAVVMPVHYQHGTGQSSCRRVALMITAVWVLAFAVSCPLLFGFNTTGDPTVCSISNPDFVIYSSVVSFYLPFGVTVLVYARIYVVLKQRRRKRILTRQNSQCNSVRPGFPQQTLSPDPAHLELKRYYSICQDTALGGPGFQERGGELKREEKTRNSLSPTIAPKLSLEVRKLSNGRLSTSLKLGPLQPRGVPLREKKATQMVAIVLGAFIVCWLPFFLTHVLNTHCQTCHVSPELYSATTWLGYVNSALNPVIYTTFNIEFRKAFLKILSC

With `COc1nc2c(cc1NS(=O)(=O)c1ccc([C@H]3CCCCO3)cc1)CCNCC2` [Example 9, N-(2-Methoxy-6,7,8,9-tetrahydro-5H-pyrido[2,3-d]azepin-3-yl)-4-[(2R)-tetrahydro-2H-pyran-2-yl]benzenesulfonamide], the Ki is 7.68 nM in test [1] and 1270 nM in test [2].

For `CCN1CCc2cc(NS(=O)(=O)c3ccc(C(C)C)cc3)c(OC)nc2CC1` [Example 51, N-(7-ethyl-2-methoxy-6,7,8,9-tetrahydro-5H-pyrido[2,3-d]azepin-3-yl)-4-(propan-2-yl)benzenesulfonamide], the Ki in test [1] was determined as 1.12 nM; in test [2] it was 105 nM.

Take `CCN1CCc2cc(NS(=O)(=O)c3ccc([C@H]4C[C@H](OCCF)C4)cc3)c(OC)nc2CC1` [Example 20, N-(7-ethyl-2-methoxy-6,7,8,9-tetrahydro-5H-pyrido[2,3-d]azepin-3-yl)-4-[trans-3-(2-fluoroethoxy)cyclobutyl]benzenesulfonamide]: the Ki turned out to be 1.74 nM in test [1] and 116 nM in test [2].

Take `COc1nc2c(cc1NS(=O)(=O)c1ccc(C3(C)CCOCC3)cc1)CCN(C)CC2` [Example 79, N-(2-methoxy-7-methyl-6,7,8,9-tetrahydro-5H-pyrido[2,3-d]azepin-3-yl)-4-(4-methyltetrahydro-2H-pyran-4-yl)benzenesulfonamide]: the inhibition constant (Ki) is 3.67 nM in test [1] and 403 nM in test [2].

On to `COc1nc2c(cc1NS(=O)(=O)c1ccc(OC3CCOCC3)cc1)CCN(C)CC2` [Example 78, N-(2-methoxy-7-methyl-6,7,8,9-tetrahydro-5H-pyrido[2,3-d]azepin-3-yl)-4-(tetrahydro-2H-pyran-4-yloxy)benzenesulfonamide], for which the Ki in test [1] was determined as 7.56 nM; in test [2], 718 nM.

Regarding `COc1nc2c(cc1NS(=O)(=O)c1ccc([C@@H]3CCCCO3)cc1)CCN(C)CC2` [Example 8, N-(2-Methoxy-7-methyl-6,7,8,9-tetrahydro-5H-pyrido[2,3-d]azepin-3-yl)-4-[(2S)-tetrahydro-2H-pyran-2-yl]benzenesulfonamide], the Ki turned out to be 2.09 nM in test [1] and 180 nM in test [2].

Consider `CCN1CCc2cc(NS(=O)(=O)c3ccc([C@H]4CCCCO4)c(C)c3)c(OC)nc2CC1` [Example 107, N-(7-ethyl-2-methoxy-6,7,8,9-tetrahydro-5H-pyrido[2,3-d]azepin-3-yl)-3-methyl-4-[(2R)-tetrahydro-2H-pyran-2-yl]benzenesulfonamide], for which the Ki in test [1] is 0.46 nM; in test [2], 7.24 nM.

As to `COc1nc2c(cc1NS(=O)(=O)c1ccc(C3(F)CCC(OC)CC3)cc1)CCN(C)CC2` (single isomer, unassigned) [Example 39, 4-(cis-1-fluoro-4-methoxycyclohexyl)-N-(2-methoxy-7-methyl-6,7,8,9-tetrahydro-5H-pyrido[2,3-d]azepin-3-yl)benzenesulfonamide], the results for the Ki in test [1] and in test [2] were 1.95 nM and 561 nM, respectively.

For the compound `CCN1CCc2cc(NS(=O)(=O)c3ccc(OC(F)F)cc3)c(OC)nc2CC1` [Example 59, 4-(difluoromethoxy)-N-(7-ethyl-2-methoxy-6,7,8,9-tetrahydro-5H-pyrido[2,3-d]azepin-3-yl)benzenesulfonamide], the results for the Ki in test [1] and in test [2] were 11.6 nM and 2310 nM, respectively.

In the case of `CCN1CCc2cc(NS(=O)(=O)c3ccc([C@H]4C[C@@H](OCCF)C4)cc3)c(OC)nc2CC1` [Example 119, N-(7-ethyl-2-methoxy-6,7,8,9-tetrahydro-5H-pyrido[2,3-d]azepin-3-yl)-4-[cis-3-(2-fluoroethoxy)cyclobutyl]benzenesulfonamide], the figures for the Ki in test [1] and in test [2] were 2.42 nM and 89.9 nM, respectively.

Consider `COc1nc2c(cc1NS(=O)(=O)c1ccc(C3CCOC(C)C3)cc1)CCN(C)CC2` (single isomer, unassigned) [Example 88], for which the Ki stood at 6.84 nM in test [1] and 651 nM in test [2].

As for `COc1nc2c(cc1NS(=O)(=O)c1ccc(OC3CCCC3)nc1)CCN(CCCF)CC2` [Example 122, 6-(cyclopentyloxy)-N-[7-(3-fluoropropyl)-2-methoxy-6,7,8,9-tetrahydro-5H-pyrido[2,3-d]azepin-3-yl]pyridine-3-sulfonamide], the values for the Ki in test [1] and in test [2] were 4.58 nM and 128 nM, respectively.

Consider `COc1nc2c(cc1NS(=O)(=O)c1ccc(OC3CCC3)nc1)CCN(C)CC2` [Example 17, 6-(cyclobutyloxy)-N-(2-methoxy-7-methyl-6,7,8,9-tetrahydro-5H-pyrido[2,3-d]azepin-3-yl)pyridine-3-sulfonamide], for which the Ki in test [1] is 1.95 nM; in test [2], 90.2 nM.

In the case of `COc1nc2c(cc1NS(=O)(=O)c1ccc(CC3CCCC3)nc1)CCN(C)CC2` [Example 131, 6-(cyclopentylmethyl)-N-(2-methoxy-7-methyl-6,7,8,9-tetrahydro-5H-pyrido[2,3-d]azepin-3-yl)pyridine-3-sulfonamide], the Ki in test [1] came to 2.3 nM; in test [2], 36.1 nM.

As for `CCN1CCc2cc(NS(=O)(=O)c3ccc4c(c3)CC(C)O4)c(OC)nc2CC1` (centres unmarked) [Example 67, N-(7-ethyl-2-methoxy-6,7,8,9-tetrahydro-5H-pyrido[2,3-d]azepin-3-yl)-2-methyl-2,3-dihydro-1-benzofuran-5-sulfonamide], the values for the Ki in test [1] and in test [2] were 4.02 nM and 660 nM, respectively.

For `CCN1CCc2cc(NS(=O)(=O)c3ccc(C)c(F)c3)c(OC)nc2CC1` [Example 35, N-(7-ethyl-2-methoxy-6,7,8,9-tetrahydro-5H-pyrido[2,3-d]azepin-3-yl)-3-fluoro-4-methylbenzenesulfonamide], the figures for the Ki in test [1] and in test [2] were 3.7 nM and 995 nM, respectively.

Regarding `CCCN1CCc2cc(NS(=O)(=O)c3ccc(C)cc3)c(OC)nc2CC1` [Example 26, N-(2-methoxy-7-propyl-6,7,8,9-tetrahydro-5H-pyrido[2,3-d]azepin-3-yl)-4-methylbenzenesulfonamide], the Ki in test [1] is 2.43 nM; in test [2], 522 nM.

Take `Cc1ccc(S(=O)(=O)Nc2cc3c(nc2C(F)(F)F)CCN(C)CC3)cc1` [Example 139, 4-methyl-N-[7-methyl-2-(trifluoromethyl)-6,7,8,9-tetrahydro-5H-pyrido[2,3-d]azepin-3-yl]benzenesulfonamide]: the Ki in test [1] is 713 nM; in test [2] it was more than 4280 nM.

`CCN1CCc2cc(NS(=O)(=O)c3ccc4c(c3)CCC(C)(C)O4)c(OC)nc2CC1` [Example 64, N-(7-ethyl-2-methoxy-6,7,8,9-tetrahydro-5H-pyrido[2,3-d]azepin-3-yl)-2,2-dimethyl-3,4-dihydro-2H-chromene-6-sulfonamide]: the results for the Ki in test [1] and in test [2] were 0.48 nM and 21.2 nM, respectively.

With `COc1nc2c(cc1NS(=O)(=O)c1ccc([C@@H]3CCCCO3)c(C)c1)CCN(C)CC2` [Example 105, N-(2-methoxy-7-methyl-6,7,8,9-tetrahydro-5H-pyrido[2,3-d]azepin-3-yl)-3-methyl-4-[(2S)-tetrahydro-2H-pyran-2-yl]benzenesulfonamide], the figures for the Ki in test [1] and in test [2] were 0.46 nM and 26.1 nM, respectively.

Regarding `CCCN1CCc2cc(NS(=O)(=O)c3ccc(C(C)C)cc3)c(OC)nc2CC1` [Example 49, N-(2-methoxy-7-propyl-6,7,8,9-tetrahydro-5H-pyrido[2,3-d]azepin-3-yl)-4-(propan-2-yl)benzenesulfonamide], the Ki in test [1] came to 0.88 nM; in test [2], 102 nM.

For `CCN1CCc2cc(NS(=O)(=O)c3ccc(C4(C)CCOCC4)cc3)c(OC)nc2CC1` [Example 69, N-(7-ethyl-2-methoxy-6,7,8,9-tetrahydro-5H-pyrido[2,3-d]azepin-3-yl)-4-(4-methyltetrahydro-2H-pyran-4-yl)benzenesulfonamide], the Ki came to 4.77 nM in test [1] and 392 nM in test [2].

In the case of `COc1nc2c(cc1NS(=O)(=O)c1cnc(OC(C)(C)C)nc1)CCN(C)CC2` [Example 117, 2-tert-butoxy-N-(2-methoxy-7-methyl-6,7,8,9-tetrahydro-5H-pyrido[2,3-d]azepin-3-yl)pyrimidine-5-sulfonamide], the values for the Ki in test [1] and in test [2] were 9.93 nM and 464 nM, respectively.

Consider `CCN1CCc2cc(NS(=O)(=O)c3cnc(OC4CCCC4)c(C)c3)c(OC)nc2CC1` [Example 125, 6-(cyclopentyloxy)-N-(7-ethyl-2-methoxy-6,7,8,9-tetrahydro-5H-pyrido[2,3-d]azepin-3-yl)-5-methylpyridine-3-sulfonamide], for which the Ki is 1.46 nM in test [1] and 4.05 nM in test [2].

For `COc1nc2c(cc1NS(=O)(=O)c1ccc(C3CCCC3)nc1)CCN(C)CC2` [Example 16, 6-cyclopentyl-N-(2-methoxy-7-methyl-6,7,8,9-tetrahydro-5H-pyrido[2,3-d]azepin-3-yl)pyridine-3-sulfonamide], the inhibitory constant (Ki) amounted to 2.41 nM in test [1] and 122 nM in test [2].

As for `COc1nc2c(cc1NS(=O)(=O)c1ccc(C3CC(F)(F)CCO3)cc1)CCN(C)CC2` (racemic) [Example 40, 4-(4,4-difluorotetrahydro-2H-pyran-2-yl)-N-(2-methoxy-7-methyl-6,7,8,9-tetrahydro-5H-pyrido[2,3-d]azepin-3-yl)benzenesulfonamide], the Ki in test [1] is 2.59 nM; in test [2], 134 nM.

With `COc1nc2c(cc1NS(=O)(=O)c1ccc(OC3CCCC3)nc1)CCN(C)CC2` [Example 15, 6-(cyclopentyloxy)-N-(2-methoxy-7-methyl-6,7,8,9-tetrahydro-5H-pyrido[2,3-d]azepin-3-yl)pyridine-3-sulfonamide], the values for the Ki in test [1] and in test [2] were 0.714 nM and 13.3 nM, respectively.

Regarding `COc1nc2c(cc1NS(=O)(=O)c1ccc([C@H]3C[C@H](OCCF)C3)cc1)CCN(C)CC2` [Example 3, 4-[trans-3-(2-Fluoroethoxy)cyclobutyl]-N-(2-methoxy-7-methyl-6,7,8,9-tetrahydro-5H-pyrido[2,3-d]azepin-3-yl)benzenesulfonamide], the Ki in test [1] turned out to be 1.56 nM; in test [2], 85.9 nM.
